Experimental data reported in paper PMC10746543, “Design principles for cyclin K molecular glue degraders” (Nature Chemical Biology, 2023).
“And” between values parts separate entries of the source, which are not always exact repeats. Equal values may be shown once. Read-outs that look alike come from different tables or passages of the source.

How the values were obtained:
CDK12–cyclin K and DDB1 = biological target: T1, CDK12–cyclin K and DDB1 (Homo sapiens, UniProt Q16531+Q9NYV4, K965R); test: TR-FRET ternary complex formation assay (compound titration); assay type: binding; conditions: for TR-FRET signal at compound concentration: replicate titrations
T1 construct: His6–CDK12 (a.a. 713–1,052); full-length or beta-propeller B domain deletion (ΔBPB: a.a. 396–705 deleted) constructs of His6–DDB1ΔBPB, StrepII–Avi–DDB1, or His6–Spy–DDB1; made in house; host or cells: Trichoplusia ni High Five insect cells (baculovirus)
T1 sequence (Q9NYV4 713-1052 K965R): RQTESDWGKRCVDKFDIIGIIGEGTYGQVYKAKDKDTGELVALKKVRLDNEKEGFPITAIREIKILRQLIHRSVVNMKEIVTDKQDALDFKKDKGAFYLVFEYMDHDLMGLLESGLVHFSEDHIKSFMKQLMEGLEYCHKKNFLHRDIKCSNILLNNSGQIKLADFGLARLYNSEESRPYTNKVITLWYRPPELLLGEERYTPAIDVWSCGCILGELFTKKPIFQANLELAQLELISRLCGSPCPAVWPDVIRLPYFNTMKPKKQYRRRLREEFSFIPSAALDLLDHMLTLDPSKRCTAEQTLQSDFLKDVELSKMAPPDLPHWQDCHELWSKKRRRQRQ
T1 sequence (O75909 1-267 partner): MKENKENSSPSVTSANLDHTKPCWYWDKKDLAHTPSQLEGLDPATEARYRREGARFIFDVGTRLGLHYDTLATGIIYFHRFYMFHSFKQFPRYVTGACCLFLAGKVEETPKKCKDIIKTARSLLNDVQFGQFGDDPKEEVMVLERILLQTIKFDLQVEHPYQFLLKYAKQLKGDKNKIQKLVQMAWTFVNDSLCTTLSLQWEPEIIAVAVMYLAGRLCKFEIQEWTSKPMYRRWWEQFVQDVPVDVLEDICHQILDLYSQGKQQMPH
T1 sequence (Q16531 whole entry): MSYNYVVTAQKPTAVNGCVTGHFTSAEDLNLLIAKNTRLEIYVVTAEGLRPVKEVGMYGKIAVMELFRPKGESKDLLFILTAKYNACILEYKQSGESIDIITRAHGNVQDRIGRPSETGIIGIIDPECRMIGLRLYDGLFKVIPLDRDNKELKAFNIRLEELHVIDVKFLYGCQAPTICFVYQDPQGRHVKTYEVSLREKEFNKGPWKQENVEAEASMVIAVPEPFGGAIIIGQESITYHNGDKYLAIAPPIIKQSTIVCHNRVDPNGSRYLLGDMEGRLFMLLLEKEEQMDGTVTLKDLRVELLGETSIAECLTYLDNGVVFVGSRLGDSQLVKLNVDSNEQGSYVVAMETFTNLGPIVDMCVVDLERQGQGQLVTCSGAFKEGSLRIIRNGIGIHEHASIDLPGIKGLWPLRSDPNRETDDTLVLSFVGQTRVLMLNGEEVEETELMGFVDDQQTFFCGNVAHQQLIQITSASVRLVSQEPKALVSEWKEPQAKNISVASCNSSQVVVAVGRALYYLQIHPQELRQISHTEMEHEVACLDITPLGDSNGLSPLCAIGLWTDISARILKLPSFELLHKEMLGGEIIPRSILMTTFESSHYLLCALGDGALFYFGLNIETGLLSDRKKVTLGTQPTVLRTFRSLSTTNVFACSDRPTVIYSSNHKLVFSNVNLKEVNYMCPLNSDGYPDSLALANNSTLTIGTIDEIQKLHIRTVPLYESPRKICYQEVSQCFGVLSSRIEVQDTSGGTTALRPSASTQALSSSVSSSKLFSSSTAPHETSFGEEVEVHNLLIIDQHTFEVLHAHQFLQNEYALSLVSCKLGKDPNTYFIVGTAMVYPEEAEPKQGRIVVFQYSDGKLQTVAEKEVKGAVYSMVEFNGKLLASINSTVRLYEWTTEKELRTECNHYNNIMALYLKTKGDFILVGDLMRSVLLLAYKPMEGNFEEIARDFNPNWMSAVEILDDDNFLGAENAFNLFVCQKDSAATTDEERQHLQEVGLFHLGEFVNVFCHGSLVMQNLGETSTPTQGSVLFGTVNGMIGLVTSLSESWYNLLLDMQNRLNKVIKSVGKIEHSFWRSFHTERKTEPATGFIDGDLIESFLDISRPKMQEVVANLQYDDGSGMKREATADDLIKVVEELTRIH
Procedure, shortened: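 Delayed (70 μs) time-resolved read; FRET computed as 520 nm over 490 nm emission.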

[1] = test system: cyclin K–eGFP degradation reporter; test: Cyclin K reporter stability analysis (dual-color cyclin K–eGFP reporter); assay type: cell-based, human; conditions: Supplementary Table 2; HEK293T cycK-eGFP reporter, 5 h; read-out: Cellular assays DC50
Method: HEK293T–Cas9 cells expressing the cyclin K–eGFP degradation reporter were resuspended at 1 × 10^6 ml^−1 and 50 µl of cell suspension was seeded in non-cell-culture-treated 384-well plates. Shortly after, cells were treated with drug or DMSO for 5 h. […] The fluorescent signal was quantified by flow cytometry (LSRFortessa flow cytometer, BD Biosciences). Using FlowJo (flow cytometry analysis software, BD Biosciences), the geometric mean of the eGFP and mCherry fluorescent signal for round and mCherry-positive cells was calculated. The ratio of eGFP to mCherry was normalized to the average of three DMSO-treated controls.

HEK293T cells = test: Drug sensitivity assay (CellTiter-Glo viability) with or without MLN4924 pretreatment; assay type: cell-based, human; conditions: Supplementary Table 2; for EC50: Homo sapiens, HEK-293T, HEK293T viability, 72 h, compound alone, read-out: Cellular assays EC50; for Toxicity rescue: MLN4924-mediated cytotoxicity rescue, 10 µM used where n.d.
Procedure, shortened: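 Viability of HEK293T–Cas9 cells was compared after 3-day drug treatment with or without 100 nM MLN4924 pretreatment (2 h, versus DMSO). Values are CellTiter-Glo signals relative to DMSO controls.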

[2] = Supplementary Table 2, read-out: TR-FRET EC50 TR-FRET
[3] = in vitro complex formation, 50 nM CDK12–cyclin K, 100 nM DDB1, text and figures, read-out: TR-FRET EC50
[4] = sheet MOESM7, read-out: log TR-FRET EC50 (converted)
[5] = compound concentration 79.2001 nM
[6] = compound concentration 158.4 nM
[7] = compound concentration 309.6 nM
[8] = compound concentration 626.401 nM
[9] = compound concentration 1252.8 nM
[10] = compound concentration 9936.01 nM
[11] = compound concentration 20016 nM

EC50 (CDK12–cyclin K and DDB1; [2]) | EC50 (CDK12–cyclin K and DDB1; [3]) | EC50 (CDK12–cyclin K and DDB1; [4]) | DC50 [1] | TR-FRET signal, individual replicate (CDK12–cyclin K and DDB1; compound concentration 4.68 nM) | TR-FRET signal, individual replicate (CDK12–cyclin K and DDB1; compound concentration 21.6 nM) | TR-FRET signal, individual replicate (CDK12–cyclin K and DDB1; compound concentration 36 nM) | TR-FRET signal, individual replicate (CDK12–cyclin K and DDB1; [5]) | TR-FRET signal, individual replicate (CDK12–cyclin K and DDB1; [6]) | TR-FRET signal, individual replicate (CDK12–cyclin K and DDB1; [7]) | TR-FRET signal, individual replicate (CDK12–cyclin K and DDB1; [8]) | TR-FRET signal, individual replicate (CDK12–cyclin K and DDB1; [9]) | TR-FRET signal, individual replicate (CDK12–cyclin K and DDB1; compound concentration 2448 nM) | TR-FRET signal, individual replicate (CDK12–cyclin K and DDB1; [10]) | TR-FRET signal, individual replicate (CDK12–cyclin K and DDB1; [11]) | Structure (SMILES) | EC50 (HEK293T cells) | Toxicity rescue (HEK293T cells) | further results
274 nM | 275 ± 16 nM | 274 nM | > 10000 nM |  |  |  |  |  |  |  |  |  |  |  | CC(C)n1cnc2c(NCc3ccc(-c4ccccn4)cc3)nc(NCCCCCC(=O)N[C@H]3O[C@H](CO)[C@@H](O)[C@H](O)[C@H]3O)nc21 [DS51] | > 10000 nM | 0% | TR-FRET signal at compound concentration 4.68 nM (CDK12–cyclin K and DDB1; compound concentration 4.68 nM, raw titration data): 0.2297 and 0.2444; TR-FRET signal at compound concentration 21.6 nM (CDK12–cyclin K and DDB1; compound concentration 21.6 nM, raw titration data): 0.3216 and 0.3313; TR-FRET signal at compound concentration 36 nM (CDK12–cyclin K and DDB1; compound concentration 36 nM, raw titration data): 0.5067 and 0.5037; TR-FRET signal at compound concentration 79.2001 nM (CDK12–cyclin K and DDB1; compound concentration 79.2001 nM, raw titration data): 0.816 and 0.7927; TR-FRET signal at compound concentration 158.4 nM (CDK12–cyclin K and DDB1; compound concentration 158.4 nM, raw titration data): 1.255 and 1.244; TR-FRET signal at compound concentration 309.6 nM (CDK12–cyclin K and DDB1; compound concentration 309.6 nM, raw titration data): 1.886 and 1.872; TR-FRET signal at compound concentration 626.401 nM (CDK12–cyclin K and DDB1; compound concentration 626.401 nM, raw titration data): 2.526 and 2.552; TR-FRET signal at compound concentration 1252.8 nM (CDK12–cyclin K and DDB1; compound concentration 1252.8 nM, raw titration data): 3.049 and 3.029; TR-FRET signal at compound concentration 2448 nM (CDK12–cyclin K and DDB1; compound concentration 2448 nM, raw titration data): 3.216 and 3.3184; TR-FRET signal at compound concentration 9936.01 nM (CDK12–cyclin K and DDB1; compound concentration 9936.01 nM, raw titration data): 3.256 and 3.415; TR-FRET signal at compound concentration 20016 nM (CDK12–cyclin K and DDB1; compound concentration 20016 nM, raw titration data): 3.017 and 3.197
935 nM | 936 ± 112 nM | 935 nM | > 10000 nM |  |  |  |  |  |  |  |  |  |  |  | CC[C@H](CO)Nc1nc(NCc2ccc(-c3ccc4ccccc4c3)cc2)c2ncn(C(C)C)c2n1 [DS05] | > 10000 nM | 0% | TR-FRET signal at compound concentration (CDK12–cyclin K and DDB1; compound concentration 4.68 nM): 0.139 and 0.157; TR-FRET signal at compound concentration (CDK12–cyclin K and DDB1; compound concentration 21.6 nM): 0.1423 and 0.1615; TR-FRET signal at compound concentration (CDK12–cyclin K and DDB1; compound concentration 36 nM): 0.1531 and 0.1764; TR-FRET signal at compound concentration (CDK12–cyclin K and DDB1; [5]): 0.1718 and 0.1914; TR-FRET signal at compound concentration (CDK12–cyclin K and DDB1; [6]): 0.1925 and 0.2133; TR-FRET signal at compound concentration (CDK12–cyclin K and DDB1; [7]): 0.2424 and 0.278; TR-FRET signal at compound concentration (CDK12–cyclin K and DDB1; [8]): 0.3125 and 0.3604; TR-FRET signal at compound concentration (CDK12–cyclin K and DDB1; [9]): 0.4172 and 0.4741; TR-FRET signal at compound concentration (CDK12–cyclin K and DDB1; compound concentration 2448 nM): 0.5249 and 0.5984; TR-FRET signal at compound concentration (CDK12–cyclin K and DDB1; [10]): 0.656 and 0.7191; TR-FRET signal at compound concentration (CDK12–cyclin K and DDB1; [11]): 0.5857 and 0.628
285 nM |  | 285 nM | > 10000 nM | 0.1397 and 0.1571 | 0.1381 and 0.1543 | 0.1446 and 0.1595 | 0.1442 and 0.1633 | 0.1697 and 0.1741 | 0.1833 and 0.1813 | 0.2131 and 0.2 | 0.2455 and 0.2204 | 0.2509 and 0.2343 | 0.2701 and 0.2518 | 0.2482 and 0.2271 | CC[C@H](CO)Nc1nc(NCc2ccc(CN(C)C)cc2)c2ncn(C(C)C)c2n1 [DS07] | > 10000 nM | 0% | 
 | 1160 nM | 1160 nM | > 10000 nM | 0.1399 and 0.1627 and 0.1459 and 0.1432 | 0.173 and 0.1922 and 0.1723 and 0.1754 | 0.2228 and 0.253 and 0.2242 and 0.2297 | 0.3087 and 0.3318 and 0.3304 and 0.3159 | 0.4597 and 0.4851 and 0.4992 and 0.3486 | 0.6961 and 0.632 and 0.7161 and 0.7436 | 0.9481 and 0.8335 and 0.9996 and 0.9936 | 1.125 and 0.8632 and 1.358 and 1.356 | 1.642 and 1.809 and 1.711 and 1.743 | 2.02 and 2.174 and 2.025 and 2.055 | 2.092 and 2.228 and 2.285 and 2.284 | CCCCCCCCNc1nc(N[C@H](CC)CO)nc2c1ncn2C(C)C [DS06] | > 10000 nM | 0% | TR-FRET signal (CDK12–cyclin K and DDB1; compound concentration 4.68 nM): 0.1399 and 0.1627 and 0.1459 and 0.1432; TR-FRET signal (CDK12–cyclin K and DDB1; compound concentration 21.6 nM): 0.173 and 0.1922 and 0.1723 and 0.1754; TR-FRET signal (CDK12–cyclin K and DDB1; compound concentration 36 nM): 0.2228 and 0.253 and 0.2242 and 0.2297; TR-FRET signal (CDK12–cyclin K and DDB1; [5]): 0.3087 and 0.3318 and 0.3304 and 0.3159; TR-FRET signal (CDK12–cyclin K and DDB1; [6]): 0.4597 and 0.4851 and 0.4992 and 0.3486; TR-FRET signal (CDK12–cyclin K and DDB1; [7]): 0.6961 and 0.632 and 0.7161 and 0.7436; TR-FRET signal (CDK12–cyclin K and DDB1; [8]): 0.9481 and 0.8335 and 0.9996 and 0.9936; TR-FRET signal (CDK12–cyclin K and DDB1; [9]): 1.125 and 0.8632 and 1.358 and 1.356; TR-FRET signal (CDK12–cyclin K and DDB1; compound concentration 2448 nM): 1.642 and 1.809 and 1.711 and 1.743; TR-FRET signal (CDK12–cyclin K and DDB1; [10]): 2.02 and 2.174 and 2.025 and 2.055; TR-FRET signal (CDK12–cyclin K and DDB1; [11]): 2.092 and 2.228 and 2.285 and 2.284
